Results reported in article PMC4744035, “In Vivo, In Vitro, and In Silico Characterization of Peptoids as Antimicrobial Agents” (PLoS ONE, 2016).
In brackets after ≈: the same amount, converted by molar mass. Square brackets hold non-standard residues; d marks the D form. Peptide text beside a SMILES is read from it. Nspe = C[C@H](NCC(=O)O)c1ccccc1; Nlys = NCCCCNCC(=O)O

Columns and labels:
Assay in all cases: microbe, parasite or virus in culture
[1] = system: K. pneumonia 63575 (ESBL); details: K. pneumonia 63575 (ESBL)
Summary of the method: (§1)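 Clinical and lab strains were tested by modified broth microdilution in Mueller Hinton medium at 2–7 x 10^5 CFU/mL.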

[2] = system: K. pneumonia 61962 (ESBL); details: K. pneumonia 61962 (ESBL)
Summary of the method: as §1

[3] = system: E. cloacae 218R Class C β-lactamase; details: E. cloacae 218R Class C β-lactamase
Summary of the method: as §1

E. faecium T62764 (VRE) = details: E. faecium T62764 (VRE)
Summary of the method: as §1

[4] = system: P. aeruginosa H103 (wild type); details: P. aeruginosa H103 (wild type)
Summary of the method: as §1

S. aureus C623 (MRSA) = details: S. aureus C623 (MRSA)
Summary of the method: as §1

[5] = system: P. aeruginosa H1027 (MDR); details: P. aeruginosa H1027 (MDR)
Summary of the method: as §1

E. faecalis ATCC29212 = details: E. faecalis ATCC29212
Summary of the method: as §1

P. aeruginosa 213 (MDR) = details: P. aeruginosa 213 (MDR)
Summary of the method: as §1

S. aureus ATCC25923 = details: S. aureus ATCC25923
Summary of the method: as §1

E. faecium mic80 (VRE) = details: E. faecium mic80 (VRE)
Summary of the method: as §1

P. aeruginosa 9 (MDR) = details: P. aeruginosa 9 (MDR)
Summary of the method: as §1

For `C[C@@H](c1ccccc1)N(CC(N)=O)C(=O)CN(C(=O)CN(CCCCN)C(=O)CN(C(=O)CN(C(=O)CN(CCCCN)C(=O)CN(C(=O)CN(C(=O)CN(CCCCN)C(=O)CN(C(=O)CN(C(=O)CNCCCCN)[C@@H](C)c1ccccc1)[C@@H](C)c1ccccc1)[C@@H](C)c1ccccc1)[C@@H](C)c1ccccc1)[C@@H](C)c1ccccc1)[C@@H](C)c1ccccc1)[C@@H](C)c1ccccc1` [Peptoid 1, H-(NLys-Nspe-Nspe)4-NH2] (H-[Nlys][Nspe][Nspe][Nlys][Nspe][Nspe][Nlys][Nspe][Nspe][Nlys][Nspe][Nspe]-NH2), the MIC [1] was 4 µg/mL (≈ 2.2 µM), the MIC [2] was 4 µg/mL (≈ 2.2 µM) and the MIC [3] was 2 µg/mL (≈ 1.1 µM). It also gave an MIC (E. faecium T62764 (VRE)) of 2 µg/mL (≈ 1.1 µM), an MIC [4] of 2 µg/mL (≈ 1.1 µM) and an MIC (S. aureus C623 (MRSA)) of 2 µg/mL (≈ 1.1 µM). The MIC [5] was 2 µg/mL (≈ 1.1 µM), the MIC (E. faecalis ATCC29212) was 2 µg/mL (≈ 1.1 µM) and the MIC (P. aeruginosa 213 (MDR)) was 4 µg/mL (≈ 2.2 µM). It also gave an MIC (S. aureus ATCC25923) of 2 µg/mL (≈ 1.1 µM), an MIC (E. faecium mic80 (VRE)) of 2 µg/mL (≈ 1.1 µM) and an MIC (P. aeruginosa 9 (MDR)) of 16 µg/mL (≈ 8.79 µM).
